Assay results as given in PMC5085761 (International Journal of Molecular Sciences, 2016).

Biological target: T1, human MRP4 (Homo sapiens, UniProt O15439)
T1 construct: purchased GenoMembrane Co., Ltd. (Kanagawa, Japan); host or cells: Sf9
T1 sequence (O15439 1-1325): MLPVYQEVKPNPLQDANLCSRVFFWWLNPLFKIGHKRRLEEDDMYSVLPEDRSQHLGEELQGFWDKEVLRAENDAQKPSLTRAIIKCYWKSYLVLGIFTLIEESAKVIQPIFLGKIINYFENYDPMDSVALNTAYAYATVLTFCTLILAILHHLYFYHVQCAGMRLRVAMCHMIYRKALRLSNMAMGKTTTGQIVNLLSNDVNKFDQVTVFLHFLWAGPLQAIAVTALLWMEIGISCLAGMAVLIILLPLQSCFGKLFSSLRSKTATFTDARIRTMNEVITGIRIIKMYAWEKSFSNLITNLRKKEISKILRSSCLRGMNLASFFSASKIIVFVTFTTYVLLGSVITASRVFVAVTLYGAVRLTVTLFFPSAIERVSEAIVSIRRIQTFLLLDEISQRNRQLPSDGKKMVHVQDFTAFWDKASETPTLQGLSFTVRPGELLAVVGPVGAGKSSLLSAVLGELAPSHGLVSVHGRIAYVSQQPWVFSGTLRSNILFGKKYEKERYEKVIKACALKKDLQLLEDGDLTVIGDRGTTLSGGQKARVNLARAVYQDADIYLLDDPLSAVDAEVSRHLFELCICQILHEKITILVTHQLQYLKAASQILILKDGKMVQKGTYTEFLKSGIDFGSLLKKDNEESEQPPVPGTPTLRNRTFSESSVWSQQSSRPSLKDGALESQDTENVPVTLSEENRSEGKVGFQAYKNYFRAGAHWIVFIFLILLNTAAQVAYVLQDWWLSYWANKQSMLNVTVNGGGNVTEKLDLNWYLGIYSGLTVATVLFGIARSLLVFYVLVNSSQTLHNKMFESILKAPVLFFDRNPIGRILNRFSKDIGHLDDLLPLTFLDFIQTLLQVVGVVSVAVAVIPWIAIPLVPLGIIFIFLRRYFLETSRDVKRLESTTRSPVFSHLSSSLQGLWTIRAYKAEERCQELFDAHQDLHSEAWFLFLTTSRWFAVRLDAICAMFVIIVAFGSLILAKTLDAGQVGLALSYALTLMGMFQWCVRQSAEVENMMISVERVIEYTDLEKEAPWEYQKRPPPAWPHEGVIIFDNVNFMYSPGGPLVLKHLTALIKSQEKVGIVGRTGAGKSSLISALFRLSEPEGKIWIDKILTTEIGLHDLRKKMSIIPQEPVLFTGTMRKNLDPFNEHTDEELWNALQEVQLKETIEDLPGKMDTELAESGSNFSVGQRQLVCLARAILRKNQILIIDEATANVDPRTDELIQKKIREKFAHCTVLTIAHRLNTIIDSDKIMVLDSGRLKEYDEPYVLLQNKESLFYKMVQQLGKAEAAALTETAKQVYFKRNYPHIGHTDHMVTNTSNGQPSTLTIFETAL
Experiment: Inhibition of tracer uptake in MRP4-expressing vesicles
Assay type: in vitro ADME
Settings: MRP4, tracer [3H]E2G 10 µM
Description: For ABC transporters, experimental kits containing Sf9-derived vesicles with high expression levels of human P-gp, MRP4, BCRP, and each ABC transporter (including buffer, ATP/AMP solution, and glutathione) were purchased from GenoMembrane Co., Ltd. (Kanagawa, Japan).
Vesicular transport assays were carried out according to the manufacturer’s protocol. […] The reaction was started by suspending 50 μg of vesicles (10 μL) in 40 μL of the reaction buffer. After incubation for an appropriate period of time, the reaction was stopped by the addition of ice-cold stop buffer (40 mM MOPS-Tris and 70 mM KCl; pH 7.0), after which the solution was filtered through a 0.45 μm HA filter (Millipore Corp., Billerica, MA, USA) using suction, and was washed twice in 5 mL of ice-cold stop buffer. The radioactivity of the filter was measured with a Tri-Carb 2910TR liquid scintillation counter (PerkinElmer) using Ultima Gold (PerkinElmer). The amount of tracer uptake was normalized to the membrane protein amount described in the product information sheets.

`N[C@]1(C(=O)O)C[C@@H](F)C1` [fluciclovine] showed an IC50 of 9.28 ± 1.9 mM.
